Data reported in patent publication US5527815A, “Carboxymethylidenecycloheptimidazole derivatives, method of manufacturing the same and therapeutic agents containing these compounds” (Kotobuki Seiyaku Co., Ltd., priority 1993, dated 1996).

molecular target: T1, Angiotensin II receptor (Oryctolagus cuniculus, UniProt P34976); experiment: AII receptor antagonistic activity: inhibition of angiotensin II induced contraction of isolated rabbit thoracic aorta; type: cell-based; conditions: isolated rabbit thoracic aorta contracted by angiotensin II; Van Rossum method; values shown in parenthesis
T1 construct: Rabbit thoracic aorta is isolated, contracted by angiotensin II; from tissue; host or cells: rabbit thoracic aorta
T1 sequence (P34976 1-359): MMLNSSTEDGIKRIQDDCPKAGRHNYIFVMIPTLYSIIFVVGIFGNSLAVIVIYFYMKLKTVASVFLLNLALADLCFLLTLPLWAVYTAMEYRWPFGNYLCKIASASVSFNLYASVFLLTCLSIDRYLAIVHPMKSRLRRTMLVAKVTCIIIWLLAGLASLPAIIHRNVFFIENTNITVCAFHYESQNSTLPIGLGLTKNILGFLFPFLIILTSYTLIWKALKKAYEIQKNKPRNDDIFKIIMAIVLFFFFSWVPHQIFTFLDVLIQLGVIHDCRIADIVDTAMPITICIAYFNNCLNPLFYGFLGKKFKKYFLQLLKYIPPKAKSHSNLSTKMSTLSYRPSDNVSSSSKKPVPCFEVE
Procedure: [AII receptor antagonistic activity]
Angiotensin II receptor activity experiments are carried out according to P. C. Wong et al. (Hypertension 15, 823 (1990)).
Rabbit thoracic aorta is isolated, contracted by angiotensin II. The inhibition of contraction by the compound of formula (1) is expressed as pA2 from dose-response curve (Schild, Brit. J. Pharmacol. 14, 48 (1959)) or expressed as pD2 ' according to the method of J. M. Van Rossum (Arch. Intern. Pharmacodyn., 143, 229 (1963)).

| pD2' | Structure (SMILES) |
| --- | --- |
| 9.00 | CCOC(=O)/C=C1\CCCCc2nc(CC)n(Cc3ccc(-c4ccccc4-c4nnn[nH]4)cc3)c21 [Compound 3, 2-Ethyl-8-ethoxycarbonylmethylidene-1-[(2'-(1H-tetrazole-5-yl)biphenyl-4-yl)methyl]-4,5,6,7-tetrahydro-cycloheptimidazole] |
| 8.40 | CCCc1nc2c(n1Cc1ccc(-c3ccccc3-c3nnn[nH]3)cc1)/C(=C/C(=O)OCC)CCCC2 [Compound 4, 2-Propyl-8-ethoxycarbonylmethylidene-1-[(2'-(1H-tetrazole-5-yl)biphenyl-4-yl)methyl]-4,5,6,7-tetrahydro-cycloheptimidazole] |
| 9.91 | Cc1nc2c(n1Cc1ccc(-c3ccccc3-c3nnn[nH]3)cc1)/C(=C/C(=O)O)CCCC2 [Compound 15, 2-Methyl-8-carboxymethylidene-1-[(2'-(1H-tetrazole-5-yl)biphenyl-4-yl)methyl]-4,5,6,7-tetrahydro-cycloheptimidazole] |
| 9.91 | CCc1nc2c(n1Cc1ccc(-c3ccccc3-c3nnn[nH]3)cc1)/C(=C/C(=O)O)CCCC2 [Compound 16, 2-Ethyl-8-carboxymethylidene-1-[(2'-(1H-tetrazole-5-yl)biphenyl-4-yl)methyl]-4,5,6,7-tetrahydro-cycloheptimidazole] |
| 9.86 | CCCc1nc2c(n1Cc1ccc(-c3ccccc3-c3nnn[nH]3)cc1)/C(=C/C(=O)O)CCCC2 [Compound 17, 2-Propyl-8-carboxymethylidene-1-[(2'-(1H-tetrazole-5-yl)biphenyl-4-yl)methyl]-4,5,6,7-tetrahydro-cycloheptimidazole] |
| 9.03 | CCCCc1nc2c(n1Cc1ccc(-c3ccccc3-c3nnn[nH]3)cc1)/C(=C/C(=O)O)CCCC2 [Compound 18, 2-Butyl-8-carboxymethylidene-1-[(2'-(1H-tetrazole-5-yl)biphenyl-4-yl)methyl]-4,5,6,7-tetrahydro-cycloheptimidazole] |
| 9.04 | CCc1nc2c(n1Cc1ccc(-c3ccccc3-c3nnn[nH]3)cc1)/C(=C/C(=O)O)CC(C(C)C)CC2 (stereo not shown) [Compound 20, 2-Ethyl-6-isopropyl-8-carboxymethylidene-1-[(2'-(1H-tetrazole-5-yl)biphenyl-4-yl)methyl]-4,5,6,7-tetrahydro-cycloheptimidazole] |
| 9.08 | CCCc1nc2c(n1Cc1ccc(-c3ccccc3-c3nnn[nH]3)cc1)/C(=C/C(=O)O)CC(C(C)C)CC2 (stereo not shown) [Compound 21, 2-Propyl-6-isopropyl-8-carboxymethylidene-1-[(2'-(1H-tetrazole-5-yl)biphenyl-4-yl)methyl]-4,5,6,7-tetrahydro-cycloheptimidazole] |
| 9.60 | CCc1nc2c(n1Cc1ccc(-n3cccc3-c3nnn[nH]3)cc1)/C(=C/C(=O)O)CCCC2 [Compound 23, 2-Ethyl-8-carboxymethylidene-1-[4-(1H-pyrrole-2-(1H-tetrazole-5-yl)phenyl)methyl]-4,5,6,7-tetrahydro-cycloheptimidazole] |
| 8.88 | CCCCc1nc2c(n1Cc1ccc(-c3ccccc3-c3nnn[nH]3)cc1)/C(=C/C(=O)O)CC(C(C)C)CC2 (stereo not shown) [Compound 25, 2-Butyl-6-isopropyl-8-carboxymethylidene-1-[(2'-(1H-tetrazole-5-yl)biphenyl-4-yl)methyl]-4,5,6,7-tetrahydro-cycloheptimidazole] |
| 8.45 | CCCc1nc2c(n1Cc1ccc(-c3ccccc3-c3nnn[nH]3)cc1)/C(=C/C(=O)OC(C)OC(=O)OCC)CCCC2 (stereo not shown) [Compound 27, 2-Propyl-8-(1-ethoxycarbonyloxy)ethoxycarbonylmethylidene-1-[(2'-(1H-tetrazole-5-yl)biphenyl-4-yl)methyl]-4,5,6,7-tetrahydro-cycloheptimidazole] |
| 8.11 | CCc1nc2c(n1Cc1ccc(-c3ccccc3-c3nnn[nH]3)cc1)/C(=C/C(=O)OC(C)OC(=O)OC(C)C)CCCC2 (stereo not shown) [Compound 30, 2-Ethyl-8-(1-isopropoxycarbonyloxy)ethoxycarbonylmethylidene-1-[(2'-(1H-tetrazole-5-yl)biphenyl-4-yl)methyl]-4,5,6,7-tetrahydro-cycloheptimidazole] |
| 9.38 | CCc1nc2c(n1Cc1ccc(-n3cccc3-c3nnn[nH]3)cc1)/C(=C/C(=O)OC(C)OC(=O)OC(C)C)CCCC2 (stereo not shown) [Compound 32, 2-Ethyl-8-(1-isopropoxycarbonyloxy)ethoxycarbonylmethylidene-[4-(1H-pyrrole-2-(1H-tetrazole-5-yl)phenyl)methyl]-4,5,6,7-tetrahydro-cycloheptimidazole] |
| 8.12 | CCc1nc2c(n1Cc1ccc(-c3ccccc3-c3nnn[nH]3)cc1)/C(=C/C(=O)OC(C)OC(=O)OC1CCCCC1)CCCC2 (stereo not shown) [Compound 35] |
| 8.59 | CCOC(=O)OC(C)OC(=O)/C=C1\CCCCc2nc(CC)n(Cc3ccc(-c4ccccc4-c4nnn[nH]4)cc3)c21 (stereo not shown) [Compound 36, 2-Ethyl-8-(1-ethoxycarbonyloxy)ethoxycarbonylmethylidene-1-[(2'-(1H -tetrazole-5-yl)biphenyl-4yl)methyl]-4,5,6,7-tetrahydro-cycloheptimidazole] |

same assay, conditions: isolated rabbit thoracic aorta contracted by angiotensin II; from dose-response curve (Schild); read-out: pA2 (converted)

| Kb | Structure (SMILES) |
| --- | --- |
| 36.3 nM | CCOC(=O)/C=C1\CCCCc2nc(C)n(Cc3ccc(-c4ccccc4-c4nnn[nH]4)cc3)c21 [Compound 2, 2-Methyl-8-ethoxycarbonylmethylidene-1-[(2'-(1H-tetrazole-5-yl)biphenyl-4-yl)methyl]-4,5,6,7-tetrahydro-cycloheptimidazole] |
| 0.158 nM | CCCc1nc2c(n1Cc1ccc(-c3ccccc3-c3nn[nH]n3)cc1)CCCC/C2=C\C(=O)O [Compound 14, 2-Propyl-4-carboxymethylidene-1-[(2'-(1H-tetrazole-5-yl)biphenyl-4-yl)methyl]-5,6,7,8-tetrahydro-cycloheptimidazole] |
| 1.51 nM | CCCCCc1nc2c(n1Cc1ccc(-c3ccccc3-c3nn[nH]n3)cc1)/C(=C/C(=O)O)CCCC2 [Compound 19, 2-Pentyl-8-carboxymethylidene-1-[(2'-(1H-tetrazole-5-yl)biphenyl-4-yl)methyl]-4,5,6,7-tetrahydro-cycloheptimidazole] |
| 1.26 nM | Cc1nc2c(n1Cc1ccc(-n3cccc3-c3nn[nH]n3)cc1)/C(=C/C(=O)O)CCCC2 [Compound 22, 2-Methyl-8-carboxymethylidene-1-[4-(1H-pyrrole-2-(1H-tetrazole-5-yl)phenyl)methyl]-4,5,6,7-tetrahydro-cycloheptimidazole] |
| 0.158 nM | CCCc1nc2c(n1Cc1ccc(-n3cccc3-c3nn[nH]n3)cc1)/C(=C/C(=O)O)CCCC2 [Compound 24, 2-Propyl-8-carboxymethylidene-1-[4-(1H-pyrrole-2-(1H-tetrazole-5-yl)phenyl)methyl]-4,5,6,7-tetrahydro-cycloheptimidazole] |
| 0.501 nM | CCCCc1nc2c(n1Cc1ccc(-n3cccc3-c3nn[nH]n3)cc1)/C(=C/C(=O)O)CCCC2 [Compound 26, 2-Butyl-8-carboxymethylidene-1-[4-(1H-pyrrole-2-(1H-tetrazole-5-yl)phenyl)methyl]-4,5,6,7-tetrahydro-cycloheptimidazole] |

tested on: pressor responses to AII; experiment: Inhibition of AII induced blood pressure increase in rats; type: in vivo; conditions: Rattus norvegicus, po, test compound 0.3 mg/kg orally, AII 30 ng/kg i.v., pressor responses measured at set times
Procedure: [Inhibition of All induced Blood Pressure Increase]
Carotid artery and left femoral vein in rats were cannulated. Next day, the carotid catheter was connected to a pressure transducer for monitoring arterial blood pressure. After the measurement of AII (30 ng/kg, i.v.) pressor responses, test compounds (0.3 mg/kg) were administered orally.
Thereafter, the pressor responses to AII at set times were measured and the inhibition percent was calculated according to the comparison of the pressor responses.

| Structure (SMILES) | inhibition in vivo at 0.3 mg/kg |
| --- | --- |
| CCCc1nc2c(n1Cc1ccc(-c3ccccc3-c3nnn[nH]3)cc1)/C(=C/C(=O)OCC)CCCC2 [Compound 4, 2-Propyl-8-ethoxycarbonylmethylidene-1-[(2'-(1H-tetrazole-5-yl)biphenyl-4-yl)methyl]-4,5,6,7-tetrahydro-cycloheptimidazole] | 50 to 70% |
| CCOC(=O)/C=C1\CC(C(C)C)CCc2nc(CC)n(Cc3ccc(-c4ccccc4-c4nnn[nH]4)cc3)c21 (stereo not shown) [Compound 7, 2-Ethyl-6-isopropyl-8-ethoxycarbonylmethylidene-1-[(2'-(1H-tetrazole-5yl)biphenyl-4-yl)methyl]-4,5,6,7-tetrahydro-cycloheptimidazole] | ≥ 70% |
| CCc1nc2c(n1Cc1ccc(-c3ccccc3-c3nnn[nH]3)cc1)/C(=C/C(=O)O)CCCC2 [Compound 16, 2-Ethyl-8-carboxymethylidene-1-[(2'-(1H-tetrazole-5-yl)biphenyl-4-yl)methyl]-4,5,6,7-tetrahydro-cycloheptimidazole] | ≥ 70% |
| CCCc1nc2c(n1Cc1ccc(-c3ccccc3-c3nnn[nH]3)cc1)/C(=C/C(=O)O)CCCC2 [Compound 17, 2-Propyl-8-carboxymethylidene-1-[(2'-(1H-tetrazole-5-yl)biphenyl-4-yl)methyl]-4,5,6,7-tetrahydro-cycloheptimidazole] | 50 to 70% |
| CCCc1nc2c(n1Cc1ccc(-c3ccccc3-c3nnn[nH]3)cc1)/C(=C/C(=O)OC(C)OC(=O)OC1CCCCC1)CCCC2 (stereo not shown) [Compound 28] | ≥ 70% |
| CCc1nc2c(n1Cc1ccc(-c3ccccc3-c3nnn[nH]3)cc1)/C(=C/C(=O)OC(C)OC(=O)OC(C)C)CC(C(C)C)CC2 (stereo not shown) [Compound 31, 2-Ethyl-6-isopropyl-8-(1-isopropoxycarbonyloxy)ethoxycarbonylmethylidene-1-[(2'-(1H-tetrazole-5-yl)biphenyl-4-yl)methyl]-4,5,6,7-tetrahydro cycloheptimidazole] | ≥ 70% |
| CCCc1nc2c(n1Cc1ccc(-c3ccccc3-c3nnn[nH]3)cc1)/C(=C/C(=O)OC(C)OC(=O)OC(C)C)CC(C(C)C)CC2 (stereo not shown) [Compound 33, 2-Propyl-6-isopropyl-8-(1-isopropoxycarbonyloxy)ethoxycarbonylmethylidene-1-[(2'-(1H-tetrazole-5-yl)biphenyl-4-yl)methyl]-4,5,6,7-tetrahydro-cycloheptimidazole] | ≥ 70% |
